Details: Liquid, Vibrating tube method

CCCCCCCCCC [decane]
Details | mass density [kg/m3]
303.15 K, 32305 kPa | 745.4
303.15 K, 32325 kPa | 745.3
303.15 K, 32357 kPa | 745.5
303.15 K, 32384 kPa | 745.5
303.15 K, 32413 kPa | 745.5
303.15 K, 32436 kPa | 745.5
303.15 K, 32459 kPa | 745.5
303.15 K, 32482 kPa | 745.5
303.15 K, 32502 kPa | 745.6
303.15 K, 32522 kPa | 745.4
303.15 K, 32543 kPa | 745.6
303.15 K, 32563 kPa | 745.6
303.15 K, 32588 kPa | 745.6
303.15 K, 32611 kPa | 745.7
303.15 K, 32637 kPa | 745.6
303.15 K, 32667 kPa | 745.7
303.15 K, 32691 kPa | 745.7
303.15 K, 32718 kPa | 745.7
303.15 K, 32741 kPa | 745.7
303.15 K, 32758 kPa | 745.8
303.15 K, 32788 kPa | 745.8
303.15 K, 32812 kPa | 745.8
303.15 K, 32840 kPa | 745.9
303.15 K, 32864 kPa | 745.9
303.15 K, 32892 kPa | 745.8
303.15 K, 32923 kPa | 745.8
303.15 K, 32943 kPa | 745.9
303.15 K, 32971 kPa | 745.9
303.15 K, 32989 kPa | 745.9
303.15 K, 33010 kPa | 745.9
303.15 K, 33031 kPa | 746
303.15 K, 33062 kPa | 746
303.15 K, 33093 kPa | 746
303.15 K, 33114 kPa | 746
303.15 K, 33138 kPa | 746.1
303.15 K, 33163 kPa | 746
303.15 K, 33184 kPa | 746
303.15 K, 33212 kPa | 746.1
303.15 K, 33230 kPa | 746.1
303.15 K, 33258 kPa | 746.1
303.15 K, 33286 kPa | 746
303.15 K, 33314 kPa | 746.1
303.15 K, 33339 kPa | 746.1
303.15 K, 33364 kPa | 746
303.15 K, 33389 kPa | 746.1
303.15 K, 33424 kPa | 746.1
303.15 K, 33458 kPa | 746.1
303.15 K, 33487 kPa | 746.2
303.15 K, 33512 kPa | 746.2
303.15 K, 33545 kPa | 746.2
303.15 K, 33566 kPa | 746.3
303.15 K, 33588 kPa | 746.3
303.15 K, 33621 kPa | 746.3
303.15 K, 33642 kPa | 746.3
303.15 K, 33676 kPa | 746.4
303.15 K, 33697 kPa | 746.3
303.15 K, 33719 kPa | 746.4
303.15 K, 33741 kPa | 746.4
303.15 K, 33764 kPa | 746.3
303.15 K, 33790 kPa | 746.4
303.15 K, 33816 kPa | 746.4
303.15 K, 33848 kPa | 746.4
303.15 K, 33871 kPa | 746.4
303.15 K, 33904 kPa | 746.4
303.15 K, 33923 kPa | 746.4
303.15 K, 33961 kPa | 746.4
303.15 K, 33984 kPa | 746.6
303.15 K, 34018 kPa | 746.6
303.15 K, 34044 kPa | 746.5
303.15 K, 34068 kPa | 746.5
303.15 K, 34100 kPa | 746.6
303.15 K, 34124 kPa | 746.5
303.15 K, 34151 kPa | 746.6
303.15 K, 34180 kPa | 746.5
303.15 K, 34218 kPa | 746.6
303.15 K, 34247 kPa | 746.6
303.15 K, 34265 kPa | 746.8
303.15 K, 34284 kPa | 746.8
303.15 K, 34306 kPa | 746.8
303.15 K, 34332 kPa | 746.7
303.15 K, 34354 kPa | 746.7
303.15 K, 34372 kPa | 746.8
303.15 K, 34395 kPa | 746.7
303.15 K, 34422 kPa | 746.8
303.15 K, 34443 kPa | 746.9
303.15 K, 34449 kPa | 746.8
303.16 K, 4203 kPa | 725.7
303.16 K, 4220 kPa | 725.6
303.16 K, 4238 kPa | 725.7
303.16 K, 4251 kPa | 725.8
303.16 K, 4264 kPa | 725.7
303.16 K, 4275 kPa | 725.6
303.16 K, 4290 kPa | 725.8
303.16 K, 4305 kPa | 725.8
303.16 K, 4325 kPa | 725.8
303.16 K, 4341 kPa | 725.8
303.16 K, 4354 kPa | 725.8
303.16 K, 4367 kPa | 725.9
303.16 K, 4380 kPa | 725.8
303.16 K, 4395 kPa | 725.9
303.16 K, 4407 kPa | 725.9
303.16 K, 4422 kPa | 725.8
303.16 K, 4433 kPa | 725.9
303.16 K, 4451 kPa | 725.9
303.16 K, 4466 kPa | 725.8
303.16 K, 4480 kPa | 725.9
303.16 K, 4496 kPa | 726
303.16 K, 4508 kPa | 726
303.16 K, 4521 kPa | 725.9
303.16 K, 4534 kPa | 725.9
303.16 K, 4547 kPa | 726
303.16 K, 4563 kPa | 726
303.16 K, 4577 kPa | 726.1
303.16 K, 4593 kPa | 726
303.16 K, 4606 kPa | 726
303.16 K, 4625 kPa | 726
303.16 K, 4643 kPa | 726
303.16 K, 4656 kPa | 726.1
303.16 K, 4675 kPa | 726.1
303.16 K, 4693 kPa | 726.1
303.16 K, 4708 kPa | 726.1
303.16 K, 4723 kPa | 726.1
303.16 K, 4736 kPa | 726.2
303.16 K, 4754 kPa | 726.1
303.16 K, 4774 kPa | 726.2
303.16 K, 4788 kPa | 726.2
303.16 K, 4802 kPa | 726.1
303.16 K, 4819 kPa | 726.2
303.16 K, 4835 kPa | 726.2
303.16 K, 4846 kPa | 726.2
303.16 K, 4858 kPa | 726.3
303.16 K, 4870 kPa | 726.2
303.16 K, 4881 kPa | 726.1
303.16 K, 4893 kPa | 726.1
303.16 K, 4904 kPa | 726.2
303.16 K, 4918 kPa | 726.3
303.16 K, 4931 kPa | 726.3

Reference: the NIST ThermoML archive (doi:10.1021/je800110r)
